Here are results for 3 molecules from paper PMC9569593, “Measurement of Hepatic CYP3A4 and 2D6 Activity Using Radioiodine-Labeled O-Desmethylvenlafaxine” (International Journal of Molecular Sciences, 2022).

Broadly, the inhibition is the percentage by which the read-out fell short of the control. High values mean a response far below the control, low ones a response near the control.

Data set [1] concerns CYP3A4. Put plainly: Inhibition of CYP-mediated metabolism of 125I-ODV by selective inhibitor (ketoconazole). Format: in vitro ADME. Particulars: ddY, mouse, pooled mouse liver homogenate (MLH), pH 7.4, probe 125I-ODV; inhibitor 10 µM, compared with NADPH [+]. As for the experimental part:
(§1) The pooled MLH was stored at −80 °C.
(§2) For inhibition analysis of specific isozymes of CYP-mediated metabolism of ^125I-ODV, selective inhibitors of CYP isozymes employed in this study included α-naphthoflavone (an inhibitor of CYP1A1 and 1A2), sulfaphenazole (CYP2C9), fluconazole (CYP2C19), paroxetine (CYP2D6), 4-methylpyrazole (CYP2E1), and ketoconazole (CYP3A4). These selective inhibitors were used to elucidate the CYP responsible for the biotransformation of ^125I-ODV. Each inhibitor was dissolved at 10 µM (dimethyl sulfoxide 0.8% v/v final concentration). […] The sample was incubated at 37 °C for 15 min with gentle shaking. The reaction was stopped by adding 100 µL ethanol, and the sample was centrifuged for 5 min at 18,000 g.

The test system of the next data set is CYP2D6. Put plainly: Inhibition of CYP-mediated metabolism of 125I-ODV by selective inhibitor (paroxetine). Format: in vitro ADME. To be noted: ddY, mouse, pooled mouse liver homogenate (MLH), pH 7.4, probe 125I-ODV; inhibitor 10 µM, compared with NADPH [+]. As for the experimental part: as §1, §2
Data set [2] deals with CYP3A4. On the set-up: method as in PMID 26331791. To be noted: non-labeled ODV ref 11; cited from earlier work.

In the case of `CC(=O)N1CCN(c2ccc(OCC3COC(Cn4ccnc4)(c4ccc(Cl)cc4Cl)O3)cc2)CC1` (stereo not drawn) [ketoconazole], the inhibition at 15 min, 10 µM in the data set on CYP3A4 [1] came out at 63%.

For the molecule `Fc1ccc([C@@H]2CCNC[C@H]2COc2ccc3c(c2)OCO3)cc1` [paroxetine], the inhibition at 15 min, 10 µM in the data set with CYP2D6 came to 79%.

For the molecule `CN(C)CC(c1ccc(O)cc1)C1(O)CCCCC1` (stereo not drawn) [ODV, O-desmethylvenlafaxine], the “CYP isozyme metabolizing ODV” value in the data set on CYP3A4 [2] is on record as “metabolized only by CYP3A4”.
